Laboratory results: PubChem BioAssay AID180 (DTP/NCI, 2004)
Where “and” joins values, the source holds several entries; their conditions need not be identical. Identical values can stand only once.

System: BDF1 mice, Adenocarcinoma 755 s.c., tumor weight T/C
Test: NCI In Vivo Anticancer Drug Screen. Data for tumor model Adenocarcinoma 755 (subcutaneous) in B6D2F1 (BDF1) mice
Settings: endpoint: mean tumor weight, higher = larger tumour
Procedure, shortened: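 Tumor-bearing mice receive test compound while controls get vehicle alone. Antitumor effect is scored from survival or tumor dimensions as a T/C quotient.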

[1] = dose: 125.0 mg/kg/injection, schedule: Q01DX011 (ip), vehicle: methylcellulose (MC)
[2] = dose: 250.0 mg/kg/injection, schedule: Q01DX011 (ip), vehicle: methylcellulose (MC)
[3] = dose: 3.0 mg/kg/injection, schedule: Q01DX011 (ip), vehicle: saline
[4] = dose: 30.0 mg/kg/injection, schedule: Q01DX011 (ip), vehicle: carboxymethylcellulose (CMC)
[5] = dose: 60.0 mg/kg/injection, schedule: Q01DX011 (ip), vehicle: carboxymethylcellulose (CMC)
[6] = dose: 20.0 mg/kg/injection, schedule: Q01DX011 (ip), vehicle: methylcellulose (MC)
[7] = dose: 15.0 mg/kg/injection, schedule: Q01DX011 (ip), vehicle: methylcellulose (MC)
[8] = dose: 100.0 mg/kg/injection, schedule: Q01DX011 (ip), vehicle: carboxymethylcellulose (CMC)
[9] = dose: 12.0 mg/kg/injection, schedule: Q01DX011 (ip), vehicle: carboxymethylcellulose (CMC)
[10] = dose: 50.0 mg/kg/injection, schedule: Q01DX011 (ip), vehicle: carboxymethylcellulose (CMC)
[11] = dose: 6.0 mg/kg/injection, schedule: Q01DX011 (ip), vehicle: carboxymethylcellulose (CMC)
[12] = dose: 25.0 mg/kg/injection, schedule: Q01DX011 (ip), vehicle: carboxymethylcellulose (CMC)

Compound: COc1cc(C=O)cc(O)c1O
- T/C (dose: 62.5 mg/kg/injection, schedule: Q01DX011 (ip), vehicle: methylcellulose (MC)): 72 % of control
- T/C [1]: 58 % of control
- T/C [2]: 40 % of control

Compound: [OH-].[OH-].[Pd+2].c1ccc(CSc2ncnc3nc[nH]c23)cc1.c1ccc(CSc2ncnc3nc[nH]c23)cc1.c1ccc(CSc2ncnc3nc[nH]c23)cc1.c1ccc(CSc2ncnc3nc[nH]c23)cc1
- T/C [3]: 76 % of control
- T/C (dose: 6.0 mg/kg/injection, schedule: Q01DX011 (ip), vehicle: saline): 36 % of control
- T/C (dose: 12.0 mg/kg/injection, schedule: Q01DX011 (ip), vehicle: saline): 17 % of control
- T/C (dose: 12.5 mg/kg/injection, schedule: Q01DX011 (ip), vehicle: saline): 16 % of control
- T/C (dose: 25.0 mg/kg/injection, schedule: Q01DX011 (ip), vehicle: saline): 1 % of control
- T/C (dose: 50.0 mg/kg/injection, schedule: Q01DX011 (ip), vehicle: saline): 1 % of control
- T/C (dose: 100.0 mg/kg/injection, schedule: Q01DX011 (ip), vehicle: saline): 1 % of control
- T/C (dose: 200.0 mg/kg/injection, schedule: Q01DX011 (ip), vehicle: saline): 1 % of control

Compound: Cn1cnc(=N)c2[nH]cnc21
- T/C [4]: 97 % of control
- T/C [5]: 93 % of control
- T/C (dose: 120.0 mg/kg/injection, schedule: Q01DX011 (ip), vehicle: carboxymethylcellulose (CMC)): 73 % of control
- T/C (dose: 240.0 mg/kg/injection, schedule: Q01DX011 (ip), vehicle: carboxymethylcellulose (CMC)): 93 % of control

Compound: Clc1ccc(CSc2ncnc3c2ncn3C2CCCCO2)cc1 (configuration not stated)
- T/C [6]: 84 % of control
- T/C (dose: 65.0 mg/kg/injection, schedule: Q01DX011 (ip), vehicle: methylcellulose (MC)): 31 % of control

Compound: Cc1cnc(SCc2ccccc2Cl)nc1N(C)C
- T/C [7]: 89 % of control
- T/C [1]: 109 % of control

Compound: CCSc1ncnc2nc[nH]c12
- T/C (dose: 2.5 mg/kg/injection, schedule: Q01DX011 (ip), vehicle: carboxymethylcellulose (CMC)): 40 % of control
- T/C [8]: 1 % of control

Compound: Clc1ccc(N2CCN(CCCN3CCN(c4cccc(Cl)c4)CC3)CC2)cc1
- T/C (dose: 5.0 mg/kg/injection, schedule: Q01DX011 (ip), vehicle: methylcellulose (MC)): 71 % of control
- T/C (dose: 8.0 mg/kg/injection, schedule: Q01DX011 (ip), vehicle: carboxymethylcellulose (CMC)): 83 % of control
- T/C (dose: 10.0 mg/kg/injection, schedule: Q01DX011 (ip), vehicle: methylcellulose (MC)): 62 % of control and 72 % of control
- T/C [9]: 103 % of control
- T/C (dose: 18.0 mg/kg/injection, schedule: Q01DX011 (ip), vehicle: carboxymethylcellulose (CMC)): 40 % of control
- T/C [6]: 65 % of control
- T/C (dose: 27.0 mg/kg/injection, schedule: Q01DX011 (ip), vehicle: carboxymethylcellulose (CMC)): 46 % of control
- T/C [4]: 47 % of control
- T/C (dose: 40.0 mg/kg/injection, schedule: Q01DX011 (ip), vehicle: methylcellulose (MC)): 25 % of control
- T/C [5]: 26 % of control

Compound: Cn1cc(F)c(=O)[nH]c1=O
- T/C (dose: 5.0 mg/kg/injection, schedule: Q01DX011 (ip), vehicle: carboxymethylcellulose (CMC)): 86 % of control
- T/C (dose: 10.0 mg/kg/injection, schedule: Q01DX011 (ip), vehicle: carboxymethylcellulose (CMC)): 117 % of control
- T/C (dose: 20.0 mg/kg/injection, schedule: Q01DX011 (ip), vehicle: carboxymethylcellulose (CMC)): 87 % of control
- T/C (dose: 40.0 mg/kg/injection, schedule: Q01DX011 (ip), vehicle: carboxymethylcellulose (CMC)): 99 % of control

Compound: CC(C)CN1CC(C)C(=O)N(c2ccccc2)C1=O (configuration not stated)
- T/C [7]: 61 % of control
- T/C (dose: 31.0 mg/kg/injection, schedule: Q01DX011 (ip), vehicle: methylcellulose (MC)): 66 % of control
- T/C (dose: 62.0 mg/kg/injection, schedule: Q01DX011 (ip), vehicle: methylcellulose (MC)): 73 % of control
- T/C [1]: 75 % of control
- T/C [2]: 68 % of control

Compound: O=C(Nc1ccc([N+](=O)[O-])cc1)Nc1ccc([N+](=O)[O-])cc1 (tested in a mixture with another compound)
- T/C (dose: 175.0 mg/kg/injection, schedule: Q01DX011 (ip), vehicle: methylcellulose (MC)): 57 % of control and 72 % of control
- T/C (dose: 500.0 mg/kg/injection, schedule: Q01DX011 (ip), vehicle: methylcellulose (MC)): 27 % of control and 45 % of control

Compound: CC1(C)O[C@@H]2C[C@H]3[C@@H]4CCC5=CC(=O)CC[C@]5(C)[C@@]4(F)[C@@H](O)C[C@]3(C)[C@]2(C(=O)CO)O1
- T/C (dose: 0.3 mg/kg/injection, schedule: Q01DX011 (sc), vehicle: steriod suspending solution): 60 % of control
- T/C (dose: 0.7 mg/kg/injection, schedule: Q01DX011 (sc), vehicle: steriod suspending solution): 42 % of control
- T/C (dose: 0.75 mg/kg/injection, schedule: Q01DX011 (sc), vehicle: steriod suspending solution): 82 % of control
- T/C (dose: 6.0 mg/kg/injection, schedule: Q01DX011 (sc), vehicle: steriod suspending solution): 36 % of control
- T/C (dose: 6.25 mg/kg/injection, schedule: Q01DX011 (sc), vehicle: steriod suspending solution): 41 % of control
- T/C (dose: 12.0 mg/kg/injection, schedule: Q01DX011 (sc), vehicle: steriod suspending solution): 16 % of control
- T/C (dose: 12.5 mg/kg/injection, schedule: Q01DX011 (sc), vehicle: steriod suspending solution): 31 % of control
- T/C (dose: 24.0 mg/kg/injection, schedule: Q01DX011 (sc), vehicle: steriod suspending solution): 8 % of control (2×) and 14 % of control
- T/C (dose: 25.0 mg/kg/injection, schedule: Q01DX011 (sc), vehicle: steriod suspending solution): 20 % of control
- T/C (dose: 48.0 mg/kg/injection, schedule: Q01DX011 (sc), vehicle: steriod suspending solution): 8 % of control

Compound: Cc1nc(Cl)c(C#N)c(C(F)(F)F)c1N
- T/C [8]: 153 % of control

Compound: O=C(OCC1OC(n2cnc3c(=S)nc[nH]c32)C(OC(=O)c2ccc(Cl)cc2)C1OC(=O)c1ccc(Cl)cc1)c1ccc(Cl)cc1 (configuration not stated)
- T/C [10]: 85 % of control
- T/C (dose: 400.0 mg/kg/injection, schedule: Q01DX011 (ip), vehicle: carboxymethylcellulose (CMC)): 1 % of control and 5 % of control

Compound: Nc1nc2c(nnn2C2OC(CO)C(O)C2O)c(=O)[nH]1 (configuration not stated)
- T/C (dose: 12.0 mg/kg/injection, schedule: Q01DX011 (ip), vehicle: methylcellulose (MC)): 38 % of control

Compound: [I][Hg][CH2][C@H]1CO[C@H]([CH2][Hg][I])CO1
- T/C [11]: 95 % of control
- T/C [9]: 46 % of control
- T/C [12]: 32 % of control and 33 % of control
- T/C [10]: 21 % of control

Compound: CCCC(=O)OCC1OC(n2cnc3c(=S)nc(N)[nH]c32)C(OC(=O)CCC)C1OC(=O)CCC (configuration not stated)
- T/C (dose: 0.16 mg/kg/injection, schedule: Q01DX011 (ip), vehicle: saline): 57 % of control
- T/C (dose: 0.38 mg/kg/injection, schedule: Q01DX011 (ip), vehicle: saline): 88 % of control
- T/C (dose: 0.58 mg/kg/injection, schedule: Q01DX011 (ip), vehicle: saline): 82 % of control
- T/C (dose: 1.3 mg/kg/injection, schedule: Q01DX011 (ip), vehicle: saline): 31 % of control
- T/C (dose: 2.0 mg/kg/injection, schedule: Q01DX011 (ip), vehicle: saline): 18 % of control
- T/C [3]: 4 % of control
- T/C [11]: 2 % of control and 11 % of control
- T/C [9]: 2 % of control and 3 % of control
- T/C (dose: 24.0 mg/kg/injection, schedule: Q01DX011 (ip), vehicle: carboxymethylcellulose (CMC)): 1 % of control

Compound: CN(C)S(=O)(=O)c1ncc2[nH]cnc2n1
- T/C [12]: 116 % of control
- T/C (dose: 75.0 mg/kg/injection, schedule: Q01DX011 (ip), vehicle: carboxymethylcellulose (CMC)): 98 % of control
- T/C (dose: 225.0 mg/kg/injection, schedule: Q01DX011 (ip), vehicle: carboxymethylcellulose (CMC)): 84 % of control

Compound: CC1CN1P(=O)(OCCC#N)N1CC1C (configuration not stated)
- T/C (dose: 28.0 mg/kg/injection, schedule: Q01DX011 (ip), vehicle: saline): 90 % of control
- T/C (dose: 56.0 mg/kg/injection, schedule: Q01DX011 (ip), vehicle: saline): 104 % of control
- T/C (dose: 113.0 mg/kg/injection, schedule: Q01DX011 (ip), vehicle: saline): 77 % of control
- T/C (dose: 225.0 mg/kg/injection, schedule: Q01DX011 (ip), vehicle: saline): 10 % of control

Compound: CSc1ncc(C)c(Nc2ccc(Cl)cc2)n1
- T/C [7]: 102 % of control
